According to article PMC11831473 (Advanced Science, 2024):

Molecular target: T1, Tumor necrosis factor receptor-associated factor 4 (TRAF4) (Homo sapiens, UniProt Q9BUZ4)
T1 construct: GFP-TRAF4 (MST)
T1 sequence (Q9BUZ4 1-470): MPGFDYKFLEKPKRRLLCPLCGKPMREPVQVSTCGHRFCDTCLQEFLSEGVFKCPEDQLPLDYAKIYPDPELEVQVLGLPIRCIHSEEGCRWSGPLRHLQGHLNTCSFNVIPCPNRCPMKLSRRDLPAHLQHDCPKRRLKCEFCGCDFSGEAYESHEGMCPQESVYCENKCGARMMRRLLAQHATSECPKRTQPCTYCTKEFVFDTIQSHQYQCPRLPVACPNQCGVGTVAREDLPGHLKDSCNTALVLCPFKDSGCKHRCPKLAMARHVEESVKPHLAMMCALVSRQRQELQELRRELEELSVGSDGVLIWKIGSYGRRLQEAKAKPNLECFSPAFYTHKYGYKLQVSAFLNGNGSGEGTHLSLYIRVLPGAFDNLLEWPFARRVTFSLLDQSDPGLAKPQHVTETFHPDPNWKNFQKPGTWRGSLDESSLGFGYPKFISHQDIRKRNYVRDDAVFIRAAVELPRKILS
Experiment: ITC (Kd […]); also MST (Kd […]), competition of biotin-OA pull-down, CETSA
Assay type: binding

Compound: COc1c(O)cc2oc(-c3ccccc3)cc(=O)c2c1O [OA, Oroxylin A]
- Kd: 1100 nM
